Values quoted from earlier work, collected in US7847120B2, “Compositions of allosteric hemoglobin modifiers and methods of making the same” (Virginia Commonwealth University Intellectual Property …, priority 2004, dated 2010).

Key:
mouse fibrosarcoma tumor = conditions: combination of efaproxiral and radiation relative to radiation alone
tissue oxygenation = conditions: in vivo
[1] = test system: EMT6 mouse mammary tumors; conditions: efaproxiral plus oxygen breathing, Rockwell and Kelley 1998

radiation effects in normal tissues ([1]; normal tissues): absence of enhanced radiation effects
Compound: Cc1cc(C)cc(NC(=O)Cc2ccc(OC(C)(C)C(=O)O)cc2)c1 [efaproxiral, 2-[4-((((3,5-dimethylphenyl)amino)carbonyl)methyl)phenoxy]-2-methyl propionic acid]
tumor growth (mouse fibrosarcoma tumor): reduced
tissue oxygenation (tissue oxygenation): enhance tissue oxygenation in vivo
effect of radiation in tumors ([1]; EMT6 mouse mammary tumors): Enhancement of the effect of radiation was observed
